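1) Cells in 96-well plates. 2) Compound, 48 h, 5 concentrations. 3) Linear interpolation between surrounding doses. 4) Unreached endpoint = highest concentration. GI50 marks 50% less growth. TGI denotes the concentration required for complete inhibition of growth.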
Assays:
Assay in all cases: NCI anticancer screen, dose series, 48 h
786-0 renal = system: 786-0 renal
A498 renal = system: A498 renal
ACHN renal = system: ACHN renal
BT-549 breast = system: BT-549 breast
CAKI-1 renal = system: CAKI-1 renal
CCRF-CEM leukemia = system: CCRF-CEM leukemia
COLO 205 colon = system: COLO 205 colon
DU-145 prostate = system: DU-145 prostate
EKVX NSCLC = system: EKVX NSCLC
HCC-2998 colon = system: HCC-2998 colon
HCT-116 colon = system: HCT-116 colon
HCT-15 colon = system: HCT-15 colon
HL-60(TB) leukemia = system: HL-60(TB) leukemia
HOP-62 NSCLC = system: HOP-62 NSCLC
HS 578T breast = system: HS 578T breast
HT29 colon = system: HT29 colon
K-562 leukemia = system: K-562 leukemia
KM12 colon = system: KM12 colon
LOX IMVI melanoma = system: LOX IMVI melanoma
M14 melanoma = system: M14 melanoma
MALME-3M melanoma = system: MALME-3M melanoma
MCF7 breast = system: MCF7 breast
MDA-MB-231 breast = system: MDA-MB-231 breast
MDA-MB-435 = system: MDA-MB-435
MOLT-4 leukemia = system: MOLT-4 leukemia
NCI-H226 lung = system: NCI-H226 lung
NCI-H23 lung = system: NCI-H23 lung
NCI-H460 lung = system: NCI-H460 lung
NCI-H522 lung = system: NCI-H522 lung
NCI/ADR-RES ovarian = system: NCI/ADR-RES ovarian
OVCAR-3 ovarian = system: OVCAR-3 ovarian
OVCAR-4 ovarian = system: OVCAR-4 ovarian
OVCAR-5 ovarian = system: OVCAR-5 ovarian
OVCAR-8 ovarian = system: OVCAR-8 ovarian
PC-3 prostate = system: PC-3 prostate
SF-268 CNS = system: SF-268 CNS
SF-295 CNS = system: SF-295 CNS
SF-539 CNS = system: SF-539 CNS
SK-MEL-2 melanoma = system: SK-MEL-2 melanoma
SK-MEL-28 melanoma = system: SK-MEL-28 melanoma
SK-MEL-5 melanoma = system: SK-MEL-5 melanoma
SK-OV-3 ovarian = system: SK-OV-3 ovarian
SN12C renal = system: SN12C renal
SNB-19 CNS = system: SNB-19 CNS
SNB-75 CNS = system: SNB-75 CNS
SR leukemia = system: SR leukemia
SW-620 colon = system: SW-620 colon
T-47D breast = system: T-47D breast
TK-10 renal = system: TK-10 renal
U251 CNS = system: U251 CNS
UACC-257 melanoma = system: UACC-257 melanoma
UACC-62 melanoma = system: UACC-62 melanoma
UO-31 renal = system: UO-31 renal

In the case of O=C(O)c1ccc2nc(-c3ccc(OCCCCCOc4ccc(-c5nc6ccc(C(=O)O)cc6[nH]5)cc4)cc3)[nH]c2c1, the GI50 (786-0 renal) is reported as greater than 100 µM, the TGI (786-0 renal) is reported as greater than 100 µM and the GI50 (A498 renal) is reported as greater than 100 µM. For the same compound, the TGI (A498 renal) was greater than 100 µM, the GI50 (ACHN renal) was greater than 100 µM and the TGI (ACHN renal) was greater than 100 µM. It also gave a GI50 (BT-549 breast) greater than 100 µM, a TGI (BT-549 breast) greater than 100 µM and a GI50 (CAKI-1 renal) greater than 100 µM. It also gave a TGI (CAKI-1 renal) greater than 100 µM, a GI50 (CCRF-CEM leukemia) of 18.8 µM and a TGI (CCRF-CEM leukemia) of 44.2 µM. The GI50 (COLO 205 colon) was greater than 100 µM, the TGI (COLO 205 colon) was greater than 100 µM and the GI50 (DU-145 prostate) was greater than 100 µM. The TGI (DU-145 prostate) was greater than 100 µM, the GI50 (EKVX NSCLC) was greater than 100 µM and the TGI (EKVX NSCLC) was greater than 100 µM. For the same compound, the GI50 (HCC-2998 colon) was greater than 100 µM, the TGI (HCC-2998 colon) was greater than 100 µM and the GI50 (HCT-116 colon) was greater than 100 µM. It also gave a TGI (HCT-116 colon) greater than 100 µM, a GI50 (HCT-15 colon) greater than 100 µM and a TGI (HCT-15 colon) greater than 100 µM. The GI50 (HL-60(TB) leukemia) was greater than 100 µM, the TGI (HL-60(TB) leukemia) was greater than 100 µM and the GI50 (HOP-62 NSCLC) was greater than 100 µM. For the same compound, the TGI (HOP-62 NSCLC) was greater than 100 µM, the GI50 (HS 578T breast) was greater than 100 µM and the TGI (HS 578T breast) was greater than 100 µM. The GI50 (HT29 colon) was greater than 100 µM, the TGI (HT29 colon) was greater than 100 µM and the GI50 (K-562 leukemia) was 22.3 µM. The TGI (K-562 leukemia) was greater than 100 µM, the GI50 (KM12 colon) was greater than 100 µM and the TGI (KM12 colon) was greater than 100 µM. The GI50 (LOX IMVI melanoma) was greater than 100 µM, the TGI (LOX IMVI melanoma) was greater than 100 µM and the GI50 (M14 melanoma) was greater than 100 µM. The TGI (M14 melanoma) was greater than 100 µM, the GI50 (MALME-3M melanoma) was greater than 100 µM and the TGI (MALME-3M melanoma) was greater than 100 µM. The GI50 (MCF7 breast) was greater than 100 µM, the TGI (MCF7 breast) was greater than 100 µM and the GI50 (MDA-MB-231 breast) was greater than 100 µM. It also gave a TGI (MDA-MB-231 breast) greater than 100 µM, a GI50 (MDA-MB-435) greater than 100 µM and a TGI (MDA-MB-435) greater than 100 µM. It also gave a GI50 (MOLT-4 leukemia) of 29.7 µM, a TGI (MOLT-4 leukemia) greater than 100 µM and a GI50 (NCI-H226 lung) greater than 100 µM. It also gave a TGI (NCI-H226 lung) greater than 100 µM, a GI50 (NCI-H23 lung) greater than 100 µM and a TGI (NCI-H23 lung) greater than 100 µM. It also gave a GI50 (NCI-H460 lung) greater than 100 µM, a TGI (NCI-H460 lung) greater than 100 µM and a GI50 (NCI-H522 lung) greater than 100 µM. The TGI (NCI-H522 lung) was greater than 100 µM, the GI50 (NCI/ADR-RES ovarian) was greater than 100 µM and the TGI (NCI/ADR-RES ovarian) was greater than 100 µM. It also gave a GI50 (OVCAR-3 ovarian) greater than 100 µM, a TGI (OVCAR-3 ovarian) greater than 100 µM and a GI50 (OVCAR-4 ovarian) greater than 100 µM. It also gave a TGI (OVCAR-4 ovarian) greater than 100 µM, a GI50 (OVCAR-5 ovarian) greater than 100 µM and a TGI (OVCAR-5 ovarian) greater than 100 µM. It also gave a GI50 (OVCAR-8 ovarian) greater than 100 µM, a TGI (OVCAR-8 ovarian) greater than 100 µM and a GI50 (PC-3 prostate) greater than 100 µM. The TGI (PC-3 prostate) was greater than 100 µM, the GI50 (SF-268 CNS) was greater than 100 µM and the TGI (SF-268 CNS) was greater than 100 µM. For the same compound, the GI50 (SF-295 CNS) was greater than 100 µM, the TGI (SF-295 CNS) was greater than 100 µM and the GI50 (SF-539 CNS) was greater than 100 µM. It also gave a TGI (SF-539 CNS) greater than 100 µM, a GI50 (SK-MEL-2 melanoma) greater than 100 µM and a TGI (SK-MEL-2 melanoma) greater than 100 µM. For the same compound, the GI50 (SK-MEL-28 melanoma) was greater than 100 µM, the TGI (SK-MEL-28 melanoma) was greater than 100 µM and the GI50 (SK-MEL-5 melanoma) was greater than 100 µM. It also gave a TGI (SK-MEL-5 melanoma) greater than 100 µM, a GI50 (SK-OV-3 ovarian) greater than 100 µM and a TGI (SK-OV-3 ovarian) greater than 100 µM. It also gave a GI50 (SN12C renal) greater than 100 µM, a TGI (SN12C renal) greater than 100 µM and a GI50 (SNB-19 CNS) greater than 100 µM. For the same compound, the TGI (SNB-19 CNS) was greater than 100 µM, the GI50 (SNB-75 CNS) was greater than 100 µM and the TGI (SNB-75 CNS) was greater than 100 µM. For the same compound, the GI50 (SR leukemia) was 22.3 µM, the TGI (SR leukemia) was 48.6 µM and the GI50 (SW-620 colon) was greater than 100 µM. The TGI (SW-620 colon) was greater than 100 µM, the GI50 (T-47D breast) was greater than 100 µM and the TGI (T-47D breast) was greater than 100 µM. The GI50 (TK-10 renal) was greater than 100 µM, the TGI (TK-10 renal) was greater than 100 µM and the GI50 (U251 CNS) was greater than 100 µM. It also gave a TGI (U251 CNS) greater than 100 µM, a GI50 (UACC-257 melanoma) greater than 100 µM and a TGI (UACC-257 melanoma) greater than 100 µM. It also gave a GI50 (UACC-62 melanoma) greater than 100 µM, a TGI (UACC-62 melanoma) greater than 100 µM and a GI50 (UO-31 renal) greater than 100 µM. For the same compound, the TGI (UO-31 renal) was greater than 100 µM.

From PubChem BioAssay (NCI)
